Structures can show the parent of a compound that is named as a salt.
Assays:
[1] = system: 3,4-dihydroxyphenylacetic acid (DOPAC) in the striatum; experiment: In vivo test: neurochemistry, 3,4-dihydroxyphenylacetic acid (DOPAC) in the striatum; set-up: species or system rat; details: 100 μmol/kg s.c., n=4
Source text: (§1) In vivo Test: Neurochemistry
(§2) After the behavioral activity sessions the rats were decapitated and their brains rapidly taken out and put on an ice-cold petri-dish. The limbic forebrain, the striatum, the frontal cortex and the remaining hemispheral parts of each rat were dissected and frozen. Each brain part was subsequently analyzed with respect to its content of monoamines and their metabolites. The monoaminergic indices analyzed were dopamine (DA), 3,4-dihydroxyphenylacetic acid (DOPAC), homovanillic acid (HVA), 3-methoxytyramine (3-MT), serotonin (5-HT), 5-hydroxyindole acetic acid (5-HIAA), and noradrenaline (NA). All monoaminergic indices in the dissected tissue were analyzed by means of HPLC with electrochemical detection as described by Svensson K, et al., 1986, NaunynSchmiedeberg's Arch Pharmacol 334: 234-245 and references cited therein.

rats = experiment: In vivo test: behavior, spontaneous motor activity (distance traveled in motility meter); set-up: species or system rat; details: n=4; for motoractivity in the behavioral assay: 100 μmol/kg s.c., 0-60 min
[2] = system: serotonin in the striatum; experiment: In vivo test: neurochemistry, serotonin (5-HT) in the striatum; set-up: species or system rat; details: n=4
Source text: as §1, §2

[3] = system: rats pretreated with d-amphetamine; experiment: In vivo test: behavior, d-amphetamine induced hyperactivity; set-up: species or system rat; details: 100 μmol/kg s.c.; d-amphetamine 1.5 mg/kg s.c. pretreatment, n=4

Row | SMILES | melting point [°C] | 3,4-dihydroxy-phenylacetic acid in the striatum [1] [ng/g tissue] | motoractivity in the behavioral assay (rats) [cm/60 min] | further results
1 | CCCN1[C@H](C)CN(c2cccc(S(C)(=O)=O)c2)C[C@@H]1C (as salt: HCl) [Example 3, cis-4-(3-Methanesulfonyl-phenyl)-2,6-dimethyl-1-propyl-piperazine] | 233 | – | – | –
2 | CCCN1CC[C@H](c2cccc(S(C)(=O)=O)c2)[C@H](C)C1 (relative stereo) (as salt: HCl) [Example 4, cis-4-(3-Methanesulfonyl-phenyl)-3-methyl-1-propyl-piperidine] | 197 | – | – | –
3 | CCCN1CC[C@H](c2cccc(S(C)(=O)=O)c2)[C@H](C)C1 (relative stereo) [Example 4, cis-4-(3-Methanesulfonyl-phenyl)-3-methyl-1-propyl-piperidine] | – | 1884±98 | 4948±577 | –
4 | CCCN1CCN(c2cccc(C(F)(F)F)c2)CC1 [1-propyl-4-(3-triflouro-methyl-phenyl)-piperazine, reference compound] | – | – | – | motoractivity in the behavioral assay (behavioral inhibition) (rats; 50 μmol/kg s.c.): 271±137 cm/60 min; serotonin in the striatum ([2]; 50 μmol/kg s.c.): 308±18 ng/g tissue
5 | CCCN1[C@H](C)CN(c2cccc(C(F)(F)F)c2)C[C@@H]1C [Example 2, cis-2,6-Dimethyl-1-propyl-4-(3-trifluoro-methyl-phenyl)-piperazine] | – | 1388±60 | 3619±483 | serotonin in the striatum ([2]; 100 μmol/kg s.c.): 419±23 ng/g tissue
6 | CCCN1[C@H](C)CN(c2cccc(S(C)(=O)=O)c2)C[C@@H]1C [Example 3, cis-4-(3-Methanesulfonyl-phenyl)-2,6-dimethyl-1-propyl-piperazine] | – | 3140±169 | – | motor activity (rats; 100 μmol/kg, 30-60 min post injection): 253±73 cm/30 min; d-amphetamine induced hyperactivity [3]: 2492±530 cm/60 min
